Test results taken from patent US20230075779A1, “METHODS AND COMPOSITIONS FOR TREATING CANCER OR VIRAL INFECTION WITH A PLA2G2D ANTAGONIST” (Apeximmune Therapeutics Inc., priority 2020, published 2023).
“Also recorded” adds a separate entry of the source.

How the values were obtained:
PLA2G2D = molecular target: T1, PLA2G2D (Homo sapiens, UniProt Q9UNK4); assay: Reversal of PLA2G2D-Fc induced suppression of T cell proliferation in PBMC culture by sPLA2 inhibitor; type: cell-based; settings: 0-25 μM inhibitor, PBMC culture with wild type PLA2G2D-Fc
T1 sequence (Q9UNK4 21-145): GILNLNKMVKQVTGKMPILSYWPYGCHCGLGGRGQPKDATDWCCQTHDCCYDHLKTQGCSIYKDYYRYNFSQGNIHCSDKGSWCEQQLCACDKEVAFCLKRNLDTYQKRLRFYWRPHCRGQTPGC

PBMC cultures = assay: IFNγ and IL-2 levels in stimulated PBMC culture supernatants (MSD V-plex); type: cell-based, human; settings: soluble protein 0-20 μg/ml, 72 hours
Description: (§1) The effect of human PLA2G2D-Fc on T cell activation was assessed in peripheral blood mononuclear cell (PBMC) or isolated T cell cultures. PBMC were isolated from leukoreduction system (LRS) chambers from healthy human donors by centrifugation over Ficoll-Paque Plus (GE Life Sciences) and labeled in a 5 μM CFSE solution (Molecular Probes) for 12 min at 37° C. and washed. 2×10^5 labeled PBMC per well of a 96 well round bottom plate were then stimulated with 1 μg/ml anti-CD3 (OKT3, Invitrogen) and 0.2 μg/ml anti-CD28 (CD28.2, Invitrogen) in the presence of soluble 0-20 μg/ml human PLA2G2D-Fc or control human IgG1-Fc protein (Sino Biological) as indicated in a final volume of 200 μl RPMI (Corning). PBMC cultures were incubated for 72 hours at 37° C. before the supernatants were harvested and measured for IFNγ and IL-2 levels using MSD V-plex assays (Meso Scale Discovery). T cell proliferation within the PBMC culture was simultaneously assessed by staining cells with fluorophore-conjugated anti-CD3, anti-CD4, and anti-CD8 antibodies (Biolegend) and Live/Dead Fixable dead cell stain (Molecular Probes), and running on a BD LSRFortessa X-20 flow cytometer (Becton Dickinson). FACS data was analyzed using FlowJo software.

isolated T cells = assay: Proliferation of isolated T cell cultures with anti-CD3/anti-CD28 stimulation; type: cell-based, human
Description: To evaluate the effect of PLA2G2D protein on isolated T cells, […] protein as well as with 1 μg/ml anti-CD3 (OKT3) and 0.2 μg/ml anti-CD28 (CD28.2) in 100 μl of PBS. The following day, plates were washed twice with PBS before addition of T cells. T cells were isolated from PBMC using a Pan T Cell Isolation Kit (Miltenyi) and labeled with CFSE as described above. 1×10^5 purified and labeled T cells were added to each well of the coated plate in a final volume of 200 μl RPMI. T cells were allowed to proliferate for 72 hours at 37° C. before supernatants were collected for IFNγ and IL-2 analysis by MSD and proliferation was analyzed by FACS.

primary human T cells = assay: Binding of PLA2G2D-Fc to resting and activated primary human T cells (FACS); settings: 0-10 μg/ml
Description: To determine whether PLA2G2D elicits immune suppression by directly binding to T cells in vitro, the level of PLA2G2D binding was assessed on resting and activated primary human T cells. T cells were isolated from PBMC using a Pan T Cell Isolation Kit (Miltenyi) and cultured in the presence or absence of beads loaded with anti-human CD2, CD3, and CD28 antibodies (human T Cell Activation/Expansion Kit, Miltenyi) in RPMI for 48 hours at 37° C. Stimulated or unstimulated T cells were then harvested, washed, and incubated with 0-10 μg/ml of human PLA2G2D-Fc protein or human IgG1-Fc protein for 30 minutes at 4° C. Cells were washed 3 times with PBS and then stained with Alexa 488-conjugated goat anti-human IgG1 antibodies (Invitrogen) for 30 minutes at 4° C., washed, then analyzed by FACS.

[1] = test system: CD4+ and CD8+ T cells in PBMC cultures; assay: T cell proliferation in stimulated PBMC culture, plate-immobilized protein; type: cell-based, human; settings: immobilized protein coated at 0-10 μg/ml
Description: The effect of human PLA2G2D-Fc on T cell activation was assessed in peripheral blood mononuclear cell (PBMC) or isolated T cell cultures. […] PBMC cultures were incubated for 72 hours at 37° C. before the supernatants were harvested and measured for IFNγ and IL-2 levels using MSD V-plex assays (Meso Scale Discovery). T cell proliferation within the PBMC culture was simultaneously assessed by staining cells with fluorophore-conjugated anti-CD3, anti-CD4, and anti-CD8 antibodies (Biolegend) and Live/Dead Fixable dead cell stain (Molecular Probes), and running on a BD LSRFortessa X-20 flow cytometer (Becton Dickinson). FACS data was analyzed using FlowJo software.
To assess the effect of immobilized PLA2G2D protein on T cell proliferation in PBMC cultures, the same assay was utilized except 100 μl of 0-10 μg/ml human PLA2G2D-Fc or control human IgG1-Fc protein was coated overnight in PBS at 4° C. on 96-well flat bottom plates the day before PBMC were prepared and added along with anti-CD3 and anti-CD28 antibodies.

[2] = test system: PBMC derived CD4+ and CD8+ T cells; assay: T cell proliferation (CFSE) in anti-CD3/anti-CD28 stimulated PBMC culture, soluble protein; type: cell-based, human; settings: soluble protein 0-20 μg/ml, 72 hours
Description: as §1, with “software. […]” for “software.”

| Compound | reversal of immune suppression induced by PLA2G2D (PLA2G2D) | levels of IFNγ and IL-2 (PBMC cultures) | levels of IFNγ and IL-2 (PBMC cultures; listed as PLA2G2D protein) | proliferation of isolated T cell cultures (isolated T cells; immobilized protein coated at 0-10 μg/ml, 72 hours) | suppressive effect on isolated T cells (isolated T cells; soluble protein added instead of coated (data not shown)) | binding to activated CD4+ and CD8+ T cells (primary human T cells; stimulated T cells, compared with control human IgG1-Fc) | binding to unstimulated T cells (primary human T cells; unstimulated T cells) | CD4+ and CD8+ T cell proliferation [1] | CD4+ and CD8+ T cell proliferation ([1]; listed as PLA2G2D protein) | CD4+ and CD8+ T cell proliferation [2] | CD4+ and CD8+ T cell proliferation ([2]; listed as PLA2G2D protein) |
| --- | --- | --- | --- | --- | --- | --- | --- | --- | --- | --- | --- |
| CCc1c(C(=O)C(N)=O)c2c(OCC(=O)O)cccc2n1Cc1ccccc1 [LY315920] | does not rescue immune suppression; also recorded: does not reverse immune suppression |  |  |  |  |  |  |  |  |  |  |
| PLA2G2D-Fc: soluble human PLA2G2D-Fc protein (Sino Biological); the immunosuppressive protein studied |  | dose-dependently and significantly decreased | dose-dependently suppresses | dose-dependently suppresses | no suppressive effect | preferentially binds | to a small degree | suppressed | dose-dependently suppresses | dose-dependently suppresses; also recorded: dose dependently suppressed | dose-dependently suppresses |
